The numbers were not newly measured in US8729014B2, “Specific HCV NS3 protease inhibitors” (RFS Pharma, LLC, priority 2010, dated 2014), which cites them from elsewhere.

This data set relates to HepG2 cells. The note with it: HepG2 cells incubated with 10 μM; cited from earlier work.

On to `O=c1[nH]c(=O)n([C@@H]2O[C@H](CO)[C@@H](O)[C@@H]2F)cc1I` [fialuridine, 1,2′-deoxy-2′-fluoro-1-D-arabinofuranosly-5-iodo-uracil], for which the “morphological changes in mitochondria (electron micrographs)” value is listed as “enlarged mitochondria with morphological changes consistent with mitochondrial dysfunction”.
